Assays:
[1] = system: mouse lymphoma cell line L5178Y TK^+/−; assay: Generation of reactive oxygen species (ROS); format: cell-based; details: up to 100 μM, 3 h exposure, vs vehicle control
Protocol: The objective of the study was to investigate the generation of reactive oxygen species (ROS) induced by the test item, estetrol (E4), in a mouse lymphoma cell line L5178Y TK^+/−.
L5178Y TK^+/− cells in logarithmic phase of growth were plated in black 96 well cell culture plates at 1×10^4 cells in 90 μL of cell culture media. Controls and test item in triplicate were applied to the cells as a 10× concentrate in 10 μL of a 10% ethanol solution in PBS (final concentration of ethanol on plate was 1%). Cells were incubated for 3 hours at 37° C., 5% CO2, and the generation of ROS was evaluated by fluorescence with a ROS reagent: the ROS reagent was freshly prepared by dissolving one ampoule of reagent (50 μg) in 70 μL DMSO and further diluting this with 2.1 mL of pre-warmed PBS. 10 μL of ROS reagent was added to each well and the plate were shaken for 30 seconds in the dark. The plates were incubated approximately at 37° C., 5% CO2 for 1 h 30 min and fluorescence was read on a plate scanner with excitation at 492 nm and emission at 520 nm.

[2] = Tissue distribution of radioactivity by quantitative whole body autoradiography, non-pigmented rats; format: in vivo, rat (female Sprague-Dawley); details: female non-pigmented rats; for Concentration of radioactivity in tissue, Skin: Non-pigmented / Tissue: Blood ratio, Skin: Non-pigmented: single oral 15 mg/kg
Protocol: Times for analysis were: 0.5, 1, 2, 5, 8, 24 and 48 hours.
Distribution of radioactivity in tissues was determined and quantified using the Fuji FLA-5100 fluorescent image analyser and associated Tina and SeeScan software. Tissue concentrations of radioactivity were determined using calibrated autoradiographic microscales produced by GE Healthcare. A standard curve was produced using the microscales from which tissue concentrations of radioactivity were determined (nCi/g). These values were then converted into pg equivalents/g using the specific activity of the dose formulation.
Radioactivity concentrations are also reported as μg equivalents/g.

[3] = Tissue distribution of radioactivity by quantitative whole body autoradiography, partially pigmented rats; details: female partially pigmented rats; for Concentration of radioactivity in tissue, Skin: Non-pigmented / Concentration of radioactivity in tissue, Skin: Pigmented / Tissue: Blood ratio, Skin: Non-pigmented / Tissue: Blood ratio, Skin: Pigmented / Total amount of radioactivity in tissue, Skin (non-pigmented) / Total amount of radioactivity in tissue, Skin (pigmented): single oral 15 mg/kg
Protocol: Tissue distribution was determined in female rats (partially pigmented and non-pigmented) using [^14C]-estetrol.
A group of six female Lister Hooded rats each received a single oral dose of [^14C]-estetrol. At each selected time (see below) one animal was killed (by overdose of CO2) followed by immediate snap freezing in hexane/solid CO2. The carcasses were retained for examination of the tissue distribution of radioactivity using the technique of quantitative whole body autoradiography (QWBA).
Times for analysis were: (0.5, 8, and 24 hours, 7, 14 and 35 days).
Frozen carcasses were subjected to whole-body autoradiography.
Where concentrations are reported, radioactivity was assumed to be associated with [^14C]-estetrol or any metabolic products derived from [^14C]-estetrol. The specific activities of the dosed test compounds were used for the calculation of concentrations in all cases. Recoveries of radioactivity are reported as percentage of administered radioactivity (% dose). Radioactivity concentrations are also reported as μg equivalents/g.

[4] = system: Normal Human Dermal Fibroblasts (NHDFs); assay: Colonization of acellular area (IBIDI gap closure), fibroblasts; format: cell-based; details: 10 ng/ml, both in presence and absence of MMC
Protocol: The study consists in an in vitro assay aiming to evaluate the properties of E4 and E2 at 4 concentrations each on keratinocytes and fibroblasts. In this assay, the measurement of the colonization of a standard acellular surface generated from a confluent monolayer of cells using a dedicated culture device (IBIDI chamber) is performed. The assay is performed in absence and in presence of a proliferation inhibitor to focus on cell proliferation and migration or on migration only, respectively.
Normal Human foreskin-derived Dermal Fibroblast (NHDFs, ATCC) cells were grown in phenol-free Dulbecco's Modified Eagle Medium (DMEM, ThermoFisher Scientific) supplemented with 10% of Foetal Bovine Serum (FBS, ThermoFisher Scientific), L-glutamine and antibiotics. The cells were maintained in a humidified incubator at 37° C. with a 5% CO2 atmosphere.
Cells were plated in 2-well silicone inserts with a defined cell free gap (IBIDI chambers; IBIDI GmbH, 80209) that was previously inserted on 12-well culture plates. This culture device allows to create a standardized 500 μm±100 μm cell free gap for monitoring cell colonization. 24 h after seeding, when the culture reached high confluency, cells in the insert were treated, or not, with mitomycin C (MMC) at 10 μg/ml during 2 h. After these 2 hours, the insert was removed, and cells were treated with E2 or E4 in presence or not of MMC for additional 2 h. Then, if appropriate, the culture medium was removed and cells were treated with E2 or E4 for 22 h, in absence of MMC.
For the assay, keratinocytes were plated in Epilife medium without HKGS and all the treatments were performed in this medium. Fibroblasts were plated in DMEM medium containing only 2.5% of FBS and the treatments were performed in absence of FBS.
E2 and E4 were applied at 4 concentrations each (10^−7M, 10^−8M, 10^−9M, 10^−10M). In parallel, cells were treated with a positive control (HKGS 1% for human keratinocytes and PDGF-BB at 10 ng/ml for human fibroblasts).
To monitor cell colonization and to evaluate the gap closure rate, pictures of the gap were taken after different times: at time 0 h, corresponding to the beginning of the treatment with E2 or E4 and to the removal of the culture insert, at time 6 h and at time 24 h (corresponding to the end of the treatments with E2 or E4). Pictures were taken with a microscope Zeiss (Axiover 25-10× objective) and with a camera Invenio2EIII (DeltaPix—Lux-Optic). The colonized areas were quantified from the pictures by the use of the WimAsis platform—WimScratch software. For each insert, 3 pictures were taken at each time. As each condition was performed in triplicates, it means a total of 9 pictures per condition and per time point of acquisition

In the case of `OO` [hydrogen peroxide, reference compound], the “levels of ROS, positive control” value [1] is reported as “tendency to increase the levels of ROS”.

For [^14C]-estetrol, the “Concentration of radioactivity in tissue, Skin: Non-pigmented” value (shortened to “Concentration … Non-pigmented”) ([2]; 0.5 hours) was 2.59 microgram equivalents/gram, the “Tissue: Blood ratio, Skin: Non-pigmented” value ([2]; 0.5 hours) was 1.05 and the “Concentration … Non-pigmented” value ([2]; 1 hour) was 0.771 microgram equivalents/gram. For the same molecule, the “Tissue: Blood ratio, Skin: Non-pigmented” value ([2]; 1 hour) was 0.99, the “Concentration … Non-pigmented” value ([2]; 2 hours) was 0.465 microgram equivalents/gram and the “Tissue: Blood ratio, Skin: Non-pigmented” value ([2]; 2 hours) was 1.72. The “Concentration … Non-pigmented” value ([2]; 5 hours) was 0.189 microgram equivalents/gram, the “Tissue: Blood ratio, Skin: Non-pigmented” value ([2]; 5 hours) was 1.66 and the “Concentration … Non-pigmented” value ([2]; 8 hours) was 0.361 microgram equivalents/gram. For the same molecule, the “Tissue: Blood ratio, Skin: Non-pigmented” value ([2]; 8 hours) was 1.77, the “Concentration … Non-pigmented” value ([2]; 24 hours) was “BLQ” and the “Concentration … Non-pigmented” value ([2]; 48 hours) was “BLQ”. For the same molecule, the “Concentration of radioactivity in the liver (greatest concentration)” value ([2]; single oral dose, 0.5 hours) was 12.5 μg equivalents/g, the “Concentration … Non-pigmented” value ([3]; 0.5 hours) was 1.89 microgram equivalents/gram and the “Concentration of radioactivity in tissue, Skin: Pigmented” value (“Concentration … Skin: Pigmented” for short) ([3]; 0.5 hours) was 2.85 microgram equivalents/gram. For the same molecule, the “Tissue: Blood ratio, Skin: Non-pigmented” value ([3]; 0.5 hours) was 0.71, the “Tissue: Blood ratio, Skin: Pigmented” value ([3]; 0.5 hours) was 1.07 and the “Total amount of radioactivity in tissue, Skin (non-pigmented)” value (shortened to “Total amount … (non-pigmented)”) ([3]; 0.5 hours) was 1.136 % dose administered/tissue. The “Total amount of radioactivity in tissue, Skin (pigmented)” value (from here on “Total amount … (pigmented)”) ([3]; 0.5 hours) was 1.714 % dose administered/tissue, the “Concentration … Non-pigmented” value ([3]; 8 hours) was 0.090 microgram equivalents/gram and the “Concentration … Skin: Pigmented” value ([3]; 8 hours) was 0.163 microgram equivalents/gram. For the same molecule, the “Tissue: Blood ratio, Skin: Non-pigmented” value ([3]; 8 hours) was 0.66, the “Tissue: Blood ratio, Skin: Pigmented” value ([3]; 8 hours) was 1.03 and the “Total amount … (non-pigmented)” value ([3]; 8 hours) was 0.059 % dose administered/tissue. The “Total amount … (pigmented)” value ([3]; 8 hours) was 0.099 % dose administered/tissue, the “Concentration … Non-pigmented” value ([3]; 24 hours) was “BLQ” and the “Concentration … Skin: Pigmented” value ([3]; 24 hours) was 0.113 microgram equivalents/gram. For the same molecule, the “Total amount … (non-pigmented)” value ([3]; 24 hours) was <0.041 % dose administered/tissue, the “Total amount … (pigmented)” value ([3]; 24 hours) was 0.061 % dose administered/tissue and the “Concentration … Non-pigmented” value ([3]; 7 days) was “BLQ”. The “Concentration … Skin: Pigmented” value ([3]; 7 days) was “BLQ”, the “Total amount … (non-pigmented)” value ([3]; 7 days) was <0.043 % dose administered/tissue and the “Total amount … (pigmented)” value ([3]; 7 days) was <0.043 % dose administered/tissue. The “Concentration … Non-pigmented” value ([3]; 14 days) was “BLQ”, the “Concentration … Skin: Pigmented” value ([3]; 14 days) was “BLQ” and the “Total amount … (non-pigmented)” value ([3]; 14 days) was <0.038 % dose administered/tissue. The “Total amount … (pigmented)” value ([3]; 14 days) was <0.038 % dose administered/tissue, the “Concentration … Non-pigmented” value ([3]; 35 days) was “BLQ” and the “Concentration … Skin: Pigmented” value ([3]; 35 days) was “BLQ”. For the same molecule, the “Total amount … (non-pigmented)” value ([3]; 35 days) was <0.041 % dose administered/tissue, the “Total amount … (pigmented)” value ([3]; 35 days) was <0.041 % dose administered/tissue and the “Concentration of radioactivity in the liver (greatest concentration)” value ([3]; single oral dose, 0.5 hours) was 13.7 μg equivalents/g. The “Concentration of radioactivity in the liver” value ([3]; single oral dose, 7 days after dosing) was 0.410 μg equivalents/g and the “Concentration of radioactivity, majority of tissues (BLQ)” value ([3]; single oral dose, by 24 hours) was less than 0.076 μg equivalents/g.

B1: PDGF-BB: positive control at 10 ng/ml for human fibroblasts (protein, UniProt P01127 82-190, looked up)
Platelet-derived growth …: SLGSLTIAEPAMIAECKTRTEVFEISRRLIDRTNANFLVWPPCVEVQRCSGCCNNRNVQCRPTQVQLRPVQVRKIEIVRKKPIFKKATVTLEDHLACKCETVAAARPVT
For B1, the “NHDF colonized area, positive reference” value [4] was “significantly increases the colonized area”.

Source: patent US20250099485A1, “COMPOSITIONS FOR PROMOTING HAIR GROWTH” (ESTETRA SRL, priority 2021, published 2025)
